Laboratory results published in ChEMBL document CHEMBL4028802, “DILIrank: the largest reference drug list ranked by the risk for developing drug-induced liver injury in humans” (Drug Discov Today, 2016).
Positions of bridges follow the written chain, without caps; N, C: chain ends. Non-standard residues stand in square brackets, D forms with d. Residues, ends and D or L forms follow the SMILES beside them. hArg = N=C(N)NCCCC[C@H](N)C(=O)O; Mpa = O=C(O)CCS

Legend:
Homo sapiens [1] = species: Homo sapiens; experiment: Liver toxicity in human assessed as induction of drug-induced liver injury by measuring verified drug-induced liver injury concern status
Homo sapiens [2] = species: Homo sapiens; experiment: Liver toxicity in human assessed as induction of drug-induced liver injury by measuring severity class index
For DILI severity class in this document: key of the grades not given here.

SMILES	DILI_Concern (Homo sapiens [1])	DILI_severity_class (Homo sapiens [2])
COc1cccc2c1C(=O)c1c(O)c3c(c(O)c1C2=O)C[C@@](O)(C(=O)CO)C[C@@H]3O[C@H]1C[C@H](N)[C@H](O)[C@H](C)O1 [DOXORUBICIN]	Less-Dili-Concern	3
C[C@H]1c2cccc(O)c2C(=O)C2=C(O)[C@]3(O)C(=O)C(C(N)=O)=C(O)[C@@H](N(C)C)[C@@H]3[C@@H](O)[C@@H]21.O [DOXYCYCLINE]	Less-Dili-Concern	3
CN(C)CCOC(C)(c1ccccc1)c1ccccn1 (configuration not stated) [DOXYLAMINE]	No-Dili-Concern	0
CCCCCc1cc(O)c2c(c1)OC(C)(C)[C@@H]1CCC(C)=C[C@@H]21 [DRONABINOL]	Ambiguous-Dili-Concern	3
CCCCc1oc2ccc(NS(C)(=O)=O)cc2c1C(=O)c1ccc(OCCCN(CCCC)CCCC)cc1 [DRONEDARONE]	Most-Dili-Concern	7
CN1c2c(oc(=O)n(-c3ccccn3)c2=O)-c2ccccc2S1(=O)=O [DROXICAM]	Most-Dili-Concern	8
CNCC[C@H](Oc1cccc2ccccc12)c1cccs1 [DULOXETINE]	Most-Dili-Concern	8
C[C@]12C=CC(=O)N[C@@H]1CC[C@@H]1[C@@H]2CC[C@]2(C)[C@@H](C(=O)Nc3cc(C(F)(F)F)ccc3C(F)(F)F)CC[C@@H]12 [DUTASTERIDE]	No-Dili-Concern	0
Cn1c(=O)c2c(ncn2CC(O)CO)n(C)c1=O (configuration not stated) [DYPHYLLINE]	No-Dili-Concern	0
NC(N)=Nc1nc(CSCCN/C=N/S(=O)(=O)c2ccc(Br)cc2)cs1 [EBROTIDINE]	Most-Dili-Concern	8
O=C(O)CN(CCN(CC(=O)O)CC(=O)O)CC(=O)O [EDETIC ACID]	Ambiguous-Dili-Concern	3
CC[N+](C)(C)c1cccc(O)c1 [EDROPHONIUM]	No-Dili-Concern	0
O=C1Nc2ccc(Cl)cc2[C@@](C#CC2CC2)(C(F)(F)F)O1 [EFAVIRENZ]	Most-Dili-Concern	7
CC1=NN(c2ccc(C)c(C)c2)C(=O)/C1=N\Nc1cccc(-c2cccc(C(=O)O)c2)c1O.NCCO.NCCO [ELTROMBOPAG OLAMINE]	Most-Dili-Concern	4
Nc1nc(=O)n([C@@H]2CS[C@H](CO)O2)cc1F [EMTRICITABINE]	Ambiguous-Dili-Concern	2
C[C@H](N[C@@H](CCc1ccccc1)C(=O)O)C(=O)N1CCC[C@H]1C(=O)O [ENALAPRILAT ANHYDROUS]	Ambiguous-Dili-Concern	7
CCN(CC)C(=O)/C(C#N)=C/c1cc(O)c(O)c([N+](=O)[O-])c1 [ENTACAPONE]	Less-Dili-Concern	0
CN[C@@H](C)[C@H](O)c1ccccc1 [EPHEDRINE]	No-Dili-Concern	0
CNC[C@H](O)c1ccc(O)c(O)c1 [EPINEPHRINE]	No-Dili-Concern	0
COc1cccc2c1C(=O)c1c(O)c3c(c(O)c1C2=O)C[C@@](O)(C(=O)CO)C[C@@H]3O[C@H]1C[C@H](N)[C@@H](O)[C@H](C)O1 [EPIRUBICIN]	Ambiguous-Dili-Concern	3
COC(=O)[C@@H]1CC2=CC(=O)CC[C@]2(C)[C@@]23O[C@@H]2C[C@@]2(C)[C@@H](CC[C@@]24CCC(=O)O4)[C@H]13 [EPLERENONE]	Ambiguous-Dili-Concern	4

SMILES	DILI_Concern (Homo sapiens [1])	DILI_severity_class (Homo sapiens [2])
CCCCC[C@H](O)/C=C/[C@@H]1[C@H]2C/C(=C/CCCC(=O)O)O[C@H]2C[C@H]1O [EPOPROSTENOL]	Ambiguous-Dili-Concern	7
CCCCc1ncc(/C=C(\Cc2cccs2)C(=O)O)n1Cc1ccc(C(=O)O)cc1 [EPROSARTAN]	Ambiguous-Dili-Concern	3
N=C(N)NCCCC[C@@H]1NC(=O)CCSSC[C@@H](C(N)=O)NC(=O)[C@@H]2CCCN2C(=O)[C@H](Cc2c[nH]c3ccccc23)NC(=O)[C@H](CC(=O)O)NC(=O)CNC1=O [EPTIFIBATIDE] ([Mpa][hArg]GDWPC-NH2; disulfide 1-7)	No-Dili-Concern	0
C=C1CC[C@H](O)C/C1=C/C=C1\CCC[C@]2(C)[C@@H]([C@H](C)/C=C/[C@H](C)C(C)C)CC[C@@H]12 [ERGOCALCIFEROL]	No-Dili-Concern	0
C#Cc1cccc(Nc2ncnc3cc(OCCOC)c(OCCOC)cc23)c1 [ERLOTINIB]	Most-Dili-Concern	8
CC[C@H]1OC(=O)[C@H](C)[C@@H](O[C@H]2C[C@@](C)(OC)[C@@H](O)[C@H](C)O2)[C@H](C)[C@@H](O[C@@H]2O[C@H](C)C[C@H](N(C)C)[C@H]2O)[C@](C)(O)C[C@@H](C)C(=O)[C@H](C)[C@@H](O)[C@]1(C)O [ERYTHROMYCIN]	Most-Dili-Concern	5
CN(C)CCC[C@@]1(c2ccc(F)cc2)OCc2cc(C#N)ccc21 [ESCITALOPRAM]	Less-Dili-Concern	7
COC(=O)CCc1ccc(OCC(O)CNC(C)C)cc1 (configuration not stated) [ESMOLOL]	No-Dili-Concern	0
Clc1ccc2c(c1)C(c1ccccc1)=NCc1nncn1-2 [ESTAZOLAM]	No-Dili-Concern	0
C[C@]12CC[C@@H]3c4ccc(O)cc4CC[C@H]3[C@@H]1CC[C@@H]2O [ESTRADIOL]	Less-Dili-Concern	2
C[C@]12CC[C@@H]3c4ccc(OC(=O)N(CCCl)CCCl)cc4CC[C@H]3[C@@H]1CC[C@@H]2O [ESTRAMUSTINE]	Most-Dili-Concern	4
C[C@]12CC[C@@H]3c4ccc(O)cc4CC[C@H]3[C@@H]1CCC2=O [ESTRONE]	Ambiguous-Dili-Concern	2
C1CNCCN1.C[C@]12CC[C@@H]3c4ccc(OS(=O)(=O)O)cc4CC[C@H]3[C@@H]1CCC2=O [ESTROPIPATE]	Ambiguous-Dili-Concern	2
CN1CCN(C(=O)O[C@H]2c3nccnc3C(=O)N2c2ccc(Cl)cn2)CC1 [ESZOPICLONE]	Ambiguous-Dili-Concern	3
C=C(CC)C(=O)c1ccc(OCC(=O)O)c(Cl)c1Cl [ETHACRYNIC ACID]	Ambiguous-Dili-Concern	5
CC[C@@H](CO)NCCN[C@@H](CC)CO [ETHAMBUTOL]	Most-Dili-Concern	8
CCCCCCCC/C=C\CCCCCCCC(=O)O.NCCO [ETHANOLAMINE OLEATE]	No-Dili-Concern	0
CCc1cc(C(N)=S)ccn1 [ETHIONAMIDE]	Less-Dili-Concern	3
CCC1(C)CC(=O)NC1=O (configuration not stated) [ETHOSUXIMIDE]	Ambiguous-Dili-Concern	3
CCN1C(=O)NC(c2ccccc2)C1=O (configuration not stated) [ETHOTOIN]	Ambiguous-Dili-Concern	3
